pIC50: −log10 of the molar value.

Results on 29 compounds are retold here after patent publication US9029377B2, “Platelet-activating factor receptor antagonists” (Merck Sharp & Dohme Corp., priority 2009, dated 2015).

The target in this assay is PAFR (Homo sapiens, UniProt P25105). Kind of assay: PAF Binding Assay (PAFR binding).
Chain of PAFR (P25105 whole entry): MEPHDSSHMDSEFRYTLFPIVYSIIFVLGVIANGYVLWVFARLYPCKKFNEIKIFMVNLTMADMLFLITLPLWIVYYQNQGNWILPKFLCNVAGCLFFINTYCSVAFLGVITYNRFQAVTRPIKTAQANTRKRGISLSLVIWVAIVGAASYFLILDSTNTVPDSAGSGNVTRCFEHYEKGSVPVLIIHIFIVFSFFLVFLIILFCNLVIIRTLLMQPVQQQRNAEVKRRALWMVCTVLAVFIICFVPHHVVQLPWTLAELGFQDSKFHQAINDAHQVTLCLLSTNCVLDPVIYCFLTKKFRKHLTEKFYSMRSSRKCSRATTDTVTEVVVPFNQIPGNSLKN
In general, pIC50 refers to the IC50 on a negative log10 scale, so that one unit is a factor of ten. Read a high pIC50 as a low IC50. `COc1ccc(-c2cc(C(F)(F)F)cc(S(=O)(=O)N[C@H]3CCC[C@@H](n4cnnc4)C3)c2)cn1` [Compound 3Af, 3-(6-methoxypyridin-3-yl)-N-[(1S,3R)-3-(4H-1,2,4-triazol-4-yl)cyclohexyl]-5-(trifluoromethyl)benzenesulfonamide]: the pIC50 was 8.38.
`Cc1nncn1[C@@H]1CCC[C@H](NS(=O)(=O)c2ccc(-c3noc(C4CCC4)n3)cc2OC(F)(F)F)C1` [Compound 2Bbg, 4-(5-cyclobutyl-1,2,4-oxadiazol-3-yl)-N-[(1S,3R)-3-(3-methyl-4H-1,2,4-triazol-4-yl)cyclohexyl]-2-(trifluoromethoxy)benzenesulfonamide]: the pIC50 is 8.82.
For `Cc1nncn1[C@@H]1CCC[C@H](NS(=O)(=O)c2ccc(-c3ccc(OCC(F)(F)F)cc3)c(F)c2)C1` [Compound 2Fb, 2-fluoro-N-[(1S,3R)-3-(3-methyl-4H-1,2,4-triazol-4-yl)cyclohexyl]-4′-(2,2,2-trifluoroethoxy)biphenyl-4-sulfonamide] the value was 9.10; for “3-isoxazol-5-yl-N-[(1R,5S)-3,3-difluoro-5-(3-methyl-4H-1,2,4-triazol-4-yl)cyclohexyl]-5-(trifluoromethyl)benzenesulfonamide [Compound 9Ad]”, 7.47; for `CCc1cc(-c2ccccc2OC(F)(F)F)ccc1S(=O)(=O)N[C@H]1CCC[C@@H](n2cnnc2)C1` [Compound 2Aaa, 3-ethyl-N-[(1S,3R)-3-(4H-1,2,4-triazol-4-yl)cyclohexyl]2′-(trifluoromethoxy)biphenyl-4-sulfonamide], 7.36.
In the case of `COc1ncccc1-c1cc(OC(F)(F)F)cc(S(=O)(=O)N[C@H]2CCC[C@@H](n3cnnc3)C2)c1` [Compound 3Eb, 3-(2-methoxypyridin-3-yl)-N-[(1S,3R)-3-(4H-1,2,4-triazol-4-yl)cyclohexyl]-5-(trifluoromethoxy)benzenesulfonamide], the pIC50 was 7.89.
The compound `CCc1ccc(S(=O)(=O)N[C@H]2CCC[C@@H](n3cnnc3)C2)cc1-c1ccccc1` [Compound 2Mm, 6-ethyl-N-[(1S,3R)-3-(4H-1,2,4-triazol-4-yl)cyclohexyl]biphenyl-3-sulfonamide] showed a pIC50 of 7.59.
The result for `CCc1cc(-c2ccc(O)cc2)ccc1S(=O)(=O)N[C@H]1CCC[C@@H](n2cnnc2)C1` [Compound 2Aad, 3-ethyl-4′-hydroxy-N-[(1S,3R)-3-(4H-1,2,4-triazol-4-yl)cyclohexyl]biphenyl-4-sulfonamide] reads 7.44.
As for `O=S(=O)(N[C@H]1CCC[C@@H](n2cnnc2)C1)c1cc(-c2cccnc2)cc(C(F)(F)F)c1` [Compound 3Ar, 3-pyridin-3-yl-N-[(1S,3R)-3-(4H-1,2,4-triazol-4-yl)cyclohexyl]-5-(trifluoromethyl)benzenesulfonamide], the pIC50 is 7.49.
The result for `O=S(=O)(N[C@H]1CCC[C@@H](n2cnnc2C2CC2)C1)c1ccc(-c2noc(C3CC3)n2)cc1OC(F)(F)F` [Compound 2Bb, 4-(5-cyclopropyl-1,2,4-oxadiazol-3-yl)-N-[(1S,3R)-3-(3-cycloropyl-4H-1,2,4-triazol-4-yl)cyclohexyl]-2-(trifluoromethoxy)benzenesulfonamide] reads 8.37.
The result for `Cc1nncn1[C@@H]1CCC[C@H](NS(=O)(=O)c2ccc(-c3ccc(OC(F)(F)F)cc3)cc2F)C1` [Compound 2Jg, 3-fluoro-N-[(1S,3R)-3-(3-methyl-4H-1,2,4-triazol-4-yl)cyclohexyl]-4′-(trifluoromethoxy)biphenyl-4-sulfonamide] reads 8.00.
The result for `O=S(=O)(N[C@H]1CCC[C@@H](n2cnnc2)C1)c1cc(-c2cncc(F)c2)cc(C(F)(F)F)c1` [Compound 3Aac, 3-(5-fluoropyridin-3-yl)-N-[(1S,3R)-3-(4H-1,2,4-triazol-4-yl)cyclohexyl]-5-(trifluoromethyl)benzenesulfonamide] reads 7.70.
`CCc1cc(-c2ccc(F)nc2)ccc1S(=O)(=O)N[C@H]1CCC[C@@H](n2cnnc2)C1` [Compound 2Aam, 2-ethyl-4-(6-fluoropyridin-3-yl)-N-[(1S,3R)-3-(4H-1,2,4-triazol-4-yl)cyclohexyl]benzenesulfonamide] had a pIC50 of 7.09.
Compound `COc1ccc(S(=O)(=O)N[C@H]2CCC[C@@H](n3cnnc3)C2)cc1OC` [Compound 2Mx, 3,4-dimethoxy-N-[(1S,3R)-3-(4H-1,2,4-triazol-4-yl)cyclohexyl]benzenesulfonamide] showed a pIC50 of 6.22.
`CCCCOc1ccc(S(=O)(=O)N[C@@H]2C[C@H](n3cnnc3C)CC(F)(F)C2)cc1F` [Compound 2Hj, 4-butoxy-N-[(1R,5S)-3,3-difluoro-5-(3-methyl-4H-1,2,4-triazol-4-yl)cyclohexyl]-3-fluorobenzenesulfonamide] had a negative logarithm of the IC50 (pIC50) of 8.44.
For `O=S(=O)(N[C@H]1CCC[C@@H](n2cnnc2)C1)c1cc(-c2cc(Cl)cn3ccnc23)cc(C(F)(F)F)c1` [Compound 3Aat, 3-(6-chloroimidazo[1,2-a]pyridin-8-yl)-N-[(1S,3R)-3-(4H-1,2,4-triazol-4-yl)cyclohexyl]-5-(trifluoromethyl)benzenesulfonamide] the value was 8.57; for `Cc1nncn1[C@H]1C[C@@H](NS(=O)(=O)c2ccc(-c3ccc(OCC(F)(F)F)nc3)c(F)c2)CC(F)(F)C1` [Compound 2Hf, N-[(1R,5S)-3,3-difluoro-5-(3-methyl-4H-1,2,4-triazol-4-yl)cyclohexyl]-3-fluoro-4-[6-(2,2,2-trifluoroethoxy)pyridin-3-yl]benzenesulfonamide], 9.22; for `CC(C)Oc1ccc(-c2ccc(S(=O)(=O)N[C@H]3CCC[C@@H](n4cnnc4)C3)cc2F)cn1` [Compound 2Ee, 3-fluoro-4-(6-isopropoxypyridin-3-yl)-N-[(1S,3R)-3-(4H-1,2,4-triazol-4-yl)cyclohexyl]benzenesulfonamide], 8.29.
The result for `CCc1cc(-c2ccncc2)ccc1S(=O)(=O)N[C@H]1CCC[C@@H](n2cnnc2)C1` [Compound 2Ak, 2-ethyl-4-pyridin-4-yl-N-[(1S,3R)-3-(4H-1,2,4-triazol-4-yl)cyclohexyl]benzenesulfonamide] reads 7.02; that for `CCc1cc(OCCCC(F)(F)F)ccc1S(=O)(=O)N[C@H]1CCC[C@@H](n2cnnc2C)C1` [Compound 2Abj, 2-ethyl-N-[(1S,3R)-3-(3-methyl-4H-1,2,4-triazol-4-yl)cyclohexyl]-4-(4,4,4-trifluorobutoxy)benzenesulfonamide], 8.57; that for `Cc1nncn1[C@@H]1CCC[C@H](NS(=O)(=O)c2ccc(-c3noc(C4CCCC4)n3)cc2OC(F)(F)F)C1` [Compound 2Bbh, 4-(5-cyclopentyl-1,2,4-oxadiazol-3-yl)-N-[(1S,3R)-3-(3-methyl-4H-1,2,4-triazol-4-yl)cyclohexyl]-2-(trifluoromethoxy)benzenesulfonamide], 8.42.
For `O=S(=O)(N[C@H]1CCC[C@@H](n2cnnc2)C1)c1cc(-c2ccc3ncccc3c2)cc(C(F)(F)F)c1` [Compound 3Ap, 3-quinolin-6-yl-N-[(1S,3R)-3-(4H-1,2,4-triazol-4-yl)cyclohexyl]-5-(trifluoromethyl)benzenesulfonamide] the value was 8.48; for `O=S(=O)(N[C@H]1CCC[C@@H](n2cnnc2)C1)c1cc(-c2cc3ccccc3s2)cc(C(F)(F)F)c1` [Compound 3Aaf, 3-(1-benzothien-2-yl)-N-[(1S,3R)-3-(4H-1,2,4-triazol-4-yl)cyclohexyl]-5-(trifluoromethyl)benzenesulfonamide], 8.92.
`O=S(=O)(N[C@H]1CCC[C@@H](n2cnnc2)C1)c1cc(-c2cccs2)cc(C(F)(F)F)c1` [Compound 3Aas, 3-(2-thienyl)-N-[(1S,3R)-3-(4H-1,2,4-triazol-4-yl)cyclohexyl]-5-(trifluoromethyl)benzenesulfonamide] showed a pIC50 of 8.42.
For `COc1ncccc1-c1cc(C(F)(F)F)cc(S(=O)(=O)N[C@H]2CCC[C@@H](n3cnnc3)C2)c1` [Compound 3Ag, 3-(2-methoxypyridin-3-yl)-N-[(1S,3R)-3-(4H-1,2,4-triazol-4-yl)cyclohexyl]-5-(trifluoromethyl)benzenesulfonamide] the value was 8.35; for `O=S(=O)(N[C@@H]1C[C@H](n2cnnc2)CC(F)(F)C1)c1cc(-c2cccc3cccnc23)cc(C(F)(F)F)c1` [Compound 3Cd, N-[(1R,5S)-3,3-difluoro-5-(4H-1,2,4-triazol-4-yl)cyclohexyl]-3-quinolin-8-yl-5-(trifluoromethyl)benzenesulfonamide], 8.32; for `O=S(=O)(N[C@H]1CCC[C@@H](n2cnnc2)C1)c1cc(-c2cccc(F)n2)cc(C(F)(F)F)c1` [Compound 3Ax, 3-(6-fluoropyridin-2-yl)-N-[(1S,3R)-3-(4H-1,2,4-triazol-4-yl)cyclohexyl]-5-(trifluoromethyl)benzenesulfonamide], 8.34.
`O=S(=O)(N[C@H]1CCC[C@@H](n2cnnc2)C1)c1cccc(-c2ccccc2)c1` [Compound 2Mg, N-[(1S,3R)-3-(4H-1,2,4-triazol-4-yl)cyclohexyl]biphenyl-3-sulfonamide] had a pIC50 of 7.52.
The result for `Cc1nncn1[C@@H]1CCC[C@H](NS(=O)(=O)c2ccc(-n3nccc3C3CC3)cc2)C1` [Compound 2Nr, 4-(5-cyclopropyl-1H-pyrazol-1-yl)-N-[(1S,3R)-3-(3-methyl-4H-1,2,4-triazol-4-yl)cyclohexyl]benzenesulfonamide] reads 7.25.
